The structures appear in SMILES notation. Some results are limits rather than exact numbers.

The term IC50 denotes the concentration that inhibits the measured activity by half. High values mean lower potency, low ones higher potency.

This assay has as its system Wnt activity (SW480 colon carcinoma cells stably expressing the Sp5-Luc reporter gene). In words: Sp5-Luc reporter gene screening assay for Wnt activity in SW480 cells. In kind it is cell-based. The note with it: Homo sapiens, 42 h incubation, luminescence. An excerpt:
The screening assay for Wnt activity is described as follows. Reporter cell lines can be generated by stably transducing cancer cell lines (e.g., colon cancer) or primary cells (e.g., IEC-6 intestinal cells) with a lentiviral construct that includes a Wnt-responsive promoter driving expression of the firefly luciferase gene.
SW480 colon carcinoma cells were transduced with a lentiviral vector expressing luciferase with a human Sp5 promoter consisting of a sequence of eight TCF/LEF binding sites. SW480 cells stably expressing the Sp5-Luc reporter gene and a hygromycin resistance gene were selected by treatment with 150 μg/ml of hygromycin for 7 days. These stably transduced SW480 cells were expanded in cell culture and used for all further screening activities. For Sp5-Luc reporter gene assays, the cells were plated at 10,000 cells/well in 96-well plates with growth medium containing 10% fetal calf serum and incubated overnight at 37° C. and 5% CO2. Each compound was dissolved in DMSO as a 10 mM stock in standard j-vials and used to prepare compound source plates in dose-response format with 3-fold serial dilutions and a 10 mM top concentration. Compound transfer from serially diluted source plates to assay plates containing the cells was accomplished using a pintool (Multimek 96, Beckman equipped with V&P Scientific FP1S50H pins) based liquid handling protocol. This protocol used a slotted pin to transfer 50 nl of compound from a source plate well to an assay plate well containing 50 μl of cells in growth medium. […] Control wells received 50 nl of DMSO treatment for normalization and calculating IC50 values. The treated cells were incubated at 37° C. and 5% CO2 for an additional forty-two hours. Following incubation, the growth medium was removed and 50 μl of BrightGlo luminescence reagent (Promega) was added to each well of the 96-well assay plates. The plates were placed on an orbital shaker for 5 min and then luminescence was quantified on the Victor3 (Perkin Elmer) plate reader. Readings were normalized to DMSO only treated cells, and normalized activities were utilized for IC50 calculations using the dose-response log (inhibitor) vs. response—variable slope (four parameters) nonlinear regression feature available in GraphPad Prism 5.0 or 6.0.
(Reporter assays use an easily measured gene product as a stand-in for the process of interest.)
For `CC(C)(C)CC(=O)Nc1cncc(-c2ccc3[nH]nc(-c4nc5c(-c6ccccc6F)ccnc5[nH]4)c3c2)c1` [Compound 68, N-(5-(3-(7-(2-Fluorophenyl)-3H-imidazo[4,5-b]pyridin-2-yl)-1H-indazol-5-yl)pyridin-3-yl)-3,3-dimethylbutanamide], the half-inhibitory concentration (IC50) was found to be 0.052 µM.

In turn, `CC(C)CC(=O)Nc1cncc(-c2ccc3[nH]nc(-c4nc5c(-c6cc(O)cc(F)c6)ccnc5[nH]4)c3c2)c1` [Compound 2286, N-(5-(3-(7-(3-Fluoro-5-hydroxyphenyl)-3H-imidazo[4,5-b]pyridin-2-yl)-1H-indazol-5-yl)pyridin-3-yl)-3-methylbutanamide] registered an IC50 of 0.055 µM. This IC50 and that of the molecule before are within 1.5-fold of each other.

In turn, `O=C(Cc1ccccc1)Nc1cncc(-c2ccc3[nH]nc(-c4nc5c(-c6ccncc6)ccnc5[nH]4)c3c2)c1` [Compound 114, 2-Phenyl-N-(5-(3-(7-(pyridin-4-yl)-3H-imidazo[4,5-b]pyridin-2-yl)-1H-indazol-5-yl)pyridin-3-yl)acetamide] returned a concentration for half-maximal inhibition (IC50) of 0.054 µM.

The molecule `CN(C)Cc1cncc(-c2cc3c(-c4nc5c(-c6ccsc6)ccnc5[nH]4)n[nH]c3cc2F)c1` [Compound 1209, 1-(5-(6-Fluoro-3-(7-(thiophen-3-yl)-3H-imidazo[4,5-b]pyridin-2-yl)-1H-indazol-5-yl)pyridin-3-yl)-N,N-dimethylmethanamine] came in with a concentration for half-maximal inhibition (IC50) of more than 10 µM.

In the case of `CN(C)Cc1cncc(-c2cc(F)c3[nH]nc(-c4nc5c(-c6cc(F)cc(CNS(C)(=O)=O)c6)ccnc5[nH]4)c3c2)c1` [Compound 897, N-(3-(2-(5-(5-((Dimethylamino)methyl)pyridin-3-yl)-7-fluoro-1H-indazol-3-yl)-3H-imidazo[4,5-b]pyridin-7-yl)-5-fluorobenzyl)methanesulfonamide], the IC50 turned out to be 0.074 µM.

Consider `CS(=O)(=O)NCc1cc(F)cc(-c2ccnc3[nH]c(-c4n[nH]c5ccc(-c6cncnc6)cc45)nc23)c1` [Compound 442, N-(3-Fluoro-5-(2-(5-(pyrimidin-5-yl)-1H-indazol-3-yl)-3H-imidazo[4,5-b]pyridin-7-yl)benzyl)methanesulfonamide], for which inhibition was half-maximal at 0.0058 µM (IC50).

Molecule `Fc1cccc(-c2ccnc3[nH]c(-c4n[nH]c5ccc(-c6cncc(OCc7ccccc7)c6)cc45)nc23)c1` [Compound 1886, 2-(5-(5-(Benzyloxy)pyridin-3-yl)-1H-indazol-3-yl)-7-(3-fluorophenyl)-3H-imidazo[4,5-b]pyridine] showed an IC50 of more than 10 µM.

Regarding `CC(C)(C)C(=O)Nc1cncc(-c2ccc3[nH]nc(-c4nc5c(-c6ccsc6)ccnc5[nH]4)c3c2)c1` [Compound 268, N-(5-(3-(7-(Thiophen-3-yl)-3H-imidazo[4,5-b]pyridin-2-yl)-1H-indazol-5-yl)pyridin-3-yl)pivalamide], the half-inhibitory concentration (IC50) worked out at 0.0065 µM.

`CN(C)Cc1cncc(-c2ccc3[nH]nc(-c4nc5c(-c6cc(F)cc(CNS(C)(=O)=O)c6)ccnc5[nH]4)c3c2F)c1` [Compound 1833, N-(3-(2-(5-(5-((Dimethylamino)methyl)pyridin-3-yl)-4-fluoro-1H-indazol-3-yl)-3H-imidazo[4,5-b]pyridin-7-yl)-5-fluorobenzyl)methanesulfonamide] returned an IC50 of 0.773 µM.

Molecule `O=C(Cc1ccccc1)Nc1cncc(-c2ccc3[nH]nc(-c4nc5cccnc5[nH]4)c3c2)c1` [Compound 244, N-(5-(3-(3H-Imidazo[4,5-b]pyridin-2-yl)-1H-indazol-5-yl)pyridin-3-yl)-2-phenylacetamide] showed an IC50 of 0.352 µM. This IC50 is about 2.2-fold lower than that of the molecule before.

`CC(C)CC(=O)Nc1cncc(-c2ccc3[nH]nc(-c4nc5c(-c6cc(F)cc(OCCN7CCCC7)c6)ccnc5[nH]4)c3c2)c1` [Compound 2242, N-(5-(3-(7-(3-Fluoro-5-(2-(pyrrolidin-1-yl)ethoxy)phenyl)-3H-imidazo[4,5-b]pyridin-2-yl)-1H-indazol-5-yl)pyridin-3-yl)-3-methylbutanamide]: the IC50 was found to be 0.44 µM.

As to `CC(C)CC(=O)Nc1cncc(-c2ccc3[nH]nc(-c4nc5c(-c6ccc(F)s6)ccnc5[nH]4)c3c2)c1` [Compound 340, N-(5-(3-(7-(5-Fluorothiophen-2-yl)-3H-imidazo[4,5-b]pyridin-2-yl)-1H-indazol-5-yl)pyridin-3-yl)-3-methylbutanamide], the IC50 came to 0.0049 µM.

Consider `CC(C)CC(=O)Nc1cncc(-c2ccc3[nH]nc(-c4nc5c(-c6cc(F)cc(OCCN(C)C)c6)ccnc5[nH]4)c3c2)c1` [Compound 2198, N-(5-(3-(7-(3-(2-(Dimethylamino)ethoxy)-5-fluorophenyl)-3H-imidazo[4,5-b]pyridin-2-yl)-1H-indazol-5-yl)pyridin-3-yl)-3-methylbutanamide], for which 0.18 µM corresponded to half-maximal inhibition (IC50).

`CN1CCN(c2ccnc3[nH]c(-c4n[nH]c5ccc(-c6cncc(N)c6)cc45)nc23)CC1` [Compound 211, 5-(3-(7-(4-Methylpiperazin-1-yl)-3H-imidazo[4,5-b]pyridin-2-yl)-1H-indazol-5-yl)pyridin-3-amine] had a half-maximal inhibitory concentration (IC50) of 0.0663 µM.

With `CS(=O)(=O)NCc1cc(F)cc(-c2ccnc3[nH]c(-c4n[nH]c5ccc(-c6cncc(NC(=O)c7ccccc7)c6)cc45)nc23)c1` [Compound 427, N-(5-(3-(7-(3-Fluoro-5-(methylsulfonamidomethyl)phenyl)-3H-imidazo[4,5-b]pyridin-2-yl)-1H-indazol-5-yl)pyridin-3-yl)benzamide], it took 0.0192 µM to reach half-maximal inhibition (IC50).

Consider `CN(C)Cc1cncc(-c2cc3c(-c4nc5c(-c6cccc(F)c6)ccnc5[nH]4)n[nH]c3cc2F)c1` [Compound 949, 1-(5-(6-Fluoro-3-(7-(3-fluorophenyl)-3H-imidazo[4,5-b]pyridin-2-yl)-1H-indazol-5-yl)pyridin-3-yl)-N,N-dimethylmethanamine], for which the IC50 was more than 10 µM.

On to `CCCC(=O)Nc1cncc(-c2ccc3[nH]nc(-c4nc5c(-c6ccncc6)ccnc5[nH]4)c3c2)c1` [Compound 121, N-(5-(3-(7-(Pyridin-4-yl)-3H-imidazo[4,5-b]pyridin-2-yl)-1H-indazol-5-yl)pyridin-3-yl)butyramide], for which the 50% inhibitory concentration (IC50) amounted to 0.035 µM.

Turning to `CC(C)CC(=O)Nc1cncc(-c2ccc3[nH]nc(-c4nc5c(-c6ccc(F)cc6)ccnc5[nH]4)c3c2)c1` [Compound 28, N-(5-(3-(7-(4-Fluorophenyl)-3H-imidazo[4,5-b]pyridin-2-yl)-1H-indazol-5-yl)pyridin-3-yl)-3-methylbutanamide], the concentration for half-maximal inhibition (IC50) was found to be 0.004 µM.

As for `O=C(Nc1cncc(-c2ccc3[nH]nc(-c4nc5c(-c6ccncc6)ccnc5[nH]4)c3c2)c1)C1CCCCC1` [Compound 126, N-(5-(3-(7-(Pyridin-4-yl)-3H-imidazo[4,5-b]pyridin-2-yl)-1H-indazol-5-yl)pyridin-3-yl)cyclohexanecarboxamide], half-maximal inhibition (IC50) was put at 0.0307 µM. Compared with the last molecule, the IC50 is about 7.7-fold higher.

In the case of `CN(C)Cc1cncc(-c2cc3c(-c4nc5c(-c6cc(F)cc(CNS(C)(=O)=O)c6)ccnc5[nH]4)n[nH]c3cc2F)c1` [Compound 1365, N-(3-(2-(5-(5-((Dimethylamino)methyl)pyridin-3-yl)-6-fluoro-1H-indazol-3-yl)-3H-imidazo[4,5-b]pyridin-7-yl)-5-fluorobenzyl)methanesulfonamide], the IC50 is 0.804 µM.

With `COc1cc(F)cc(-c2ccnc3[nH]c(-c4n[nH]c5ccc(-c6cncc(NC(=O)CC(C)C)c6)cc45)nc23)c1` [Compound 2330, N-(5-(3-(7-(3-Fluoro-5-methoxyphenyl)-3H-imidazo[4,5-b]pyridin-2-yl)-1H-indazol-5-yl)pyridin-3-yl)-3-methylbutanamide], the IC50 was determined as 0.02 µM.

For `CC(C)C(=O)Nc1cncc(-c2ccc3[nH]nc(-c4nc5c(-c6cccs6)ccnc5[nH]4)c3c2)c1` [Compound 321, N-(5-(3-(7-(Thiophen-2-yl)-3H-imidazo[4,5-b]pyridin-2-yl)-1H-indazol-5-yl)pyridin-3-yl)isobutyramide], the half-maximal inhibitory concentration (IC50) came out at 0.0411 µM. This IC50 is about 2.1-fold higher than that of the molecule before.

The molecule `CN(C)c1cncc(-c2ccc3[nH]nc(-c4nc5c(-c6cccs6)ccnc5[nH]4)c3c2)c1` [Compound 319, N,N-Dimethyl-5-(3-(7-(thiophen-2-yl)-3H-imidazo[4,5-b]pyridin-2-yl)-1H-indazol-5-yl)pyridin-3-amine] came in with a concentration for half-maximal inhibition (IC50) of 0.0628 µM.

Consider `CN(C)Cc1cncc(-c2cc(F)c3[nH]nc(-c4nc5c(-c6cccc(F)c6)ccnc5[nH]4)c3c2)c1` [Compound 481, 1-(5-(7-fluoro-3-(7-(3-fluorophenyl)-3H-imidazo[4,5-b]pyridin-2-yl)-1H-indazol-5-yl)pyridin-3-yl)-N,N-dimethylmethanamine], for which half-maximal inhibition (IC50) was put at 0.155 µM. This IC50 is about 2.5-fold higher than that of the molecule before.

Turning to `CN(C)Cc1cncc(-c2ccc3[nH]nc(-c4nc5c(-c6ccsc6)ccnc5[nH]4)c3c2F)c1` [Compound 1677, 1-(5-(4-Fluoro-3-(7-(thiophen-3-yl)-3H-imidazo[4,5-b]pyridin-2-yl)-1H-indazol-5-yl)pyridin-3-yl)-N,N-dimethylmethanamine], the half-maximal inhibitory concentration (IC50) is 0.673 µM. This IC50 is about 4.3-fold higher than that of the molecule before.

Take `CC(C)C(=O)Nc1cncc(-c2ccc3[nH]nc(-c4nc5c(-c6cccnc6)ccnc5[nH]4)c3c2)c1` [Compound 87, N-(5-(3-(7-(Pyridin-3-yl)-3H-imidazo[4,5-b]pyridin-2-yl)-1H-indazol-5-yl)pyridin-3-yl)isobutyramide]: 0.0068 µM corresponded to half-maximal inhibition (IC50).
